# Data from patent EP4813384A1, “COMBINED PHARMACEUTICAL PREPARATION OF TAFAMIDIS OR PHARMACEUTICALLY ACCEPTABLE SALT THEREOF AND PROLINE HYDROXYLASE INHIBITOR” (Huaya Jiyuan (Shenzhen) Pharmaceutical Co., Ltd., priority 2024, dated 2025).
# What was measured:
# [1] = system: erythropoietin (EPO) gene expression; experiment: Real-time reverse transcription quantitative PCR (qRT-PCR) assay of EPO gene expression; assay type: cell-based; settings: HepG2 cells, 24 hours, relative to vehicle
# Procedure: Experimental method: HepG2 hepatocellular carcinoma cells are seeded into a 12-well plate. After 24 hours, 10 µM roxadustat, 1 µM tafamidis, 5 µM tafamidis, 10 µM tafamidis, and 20 µM tafamidis, a combination of 10 µM roxadustat and 1 µM tafamidis, a combination of 10 µM roxadustat and 5 µM tafamidis, a combination of 10 µM roxadustat and 10 µM tafamidis, and a combination of 10 µM roxadustat and 20 µM tafamidis, are added separately, and the cells are co-incubated with the compounds for 24 hours. No treatment is applied to the vehicle group. RNA is extracted using a TRIZOL reagent. cDNA transcription is performed using an All-in-one™ First-Strand cDNA Synthesis Kit (for specific operating procedures, see the manufacturer's instructions). A SYBR reagent is used for fluorescence signal detection, and GAPDH is used as an internal control. The qRT-PCR primers are as follows: • GAPDH_fwd, […]; • GAPDH_rev, TGGTGAAGACGCCAGTGGA; • EPO_fwd, […]; • EPO_rev, […].
# The test results are shown in FIG. 2: relative to the vehicle (control group), monotherapy with 10 µM roxadustat upregulates erythropoietin (EPO) gene expression by 1.5-fold, while monotherapy with 20 µM tafamidis upregulates EPO gene expression by 1-fold. […] Such activation may have potential therapeutic value for treating diseases such as ischemic diseases or anemia. Statistical analysis is performed using SPSS software. […]
# rats with renal anemia = experiment: Cisplatin-induced renal anemia rat model; assay type: in vivo, Male Sprague-Dawley (SD) rats; settings: 5 mg/kg roxadustat
# Procedure: Male Sprague-Dawley (SD) rats are allowed a one-week acclimation period, after which cisplatin (6 mg/kg) is administered through tail vein injection. A second injection is given one week later. Two weeks after the first administration, successful establishment of a renal disease model is confirmed by measuring serum creatinine and urea levels. The successfully modeled rats are randomly divided into three groups: cisplatin group (n = 6), 5 mg/kg roxadustat group (n = 6), and 5 mg/kg roxadustat + 10 mg/kg tafamidis group (n = 6), with continuous administration for 4 weeks. A solvent is administered to the normal control group (n = 7) and the cisplatin group based on the same drug administration regimen. After drug administration, blood analysis is performed once per week using a Mindray automated hematology analyzer (BC-5150). After sample collection, the rats are euthanized. Statistical significance is determined by one-way analysis of variance (ANOVA), and then a Dunnett's test is performed for comparison with the cisplatin group (*P < 0.05, **P < 0.01, ***P < 0.001).
# HIF-2α = molecular target: T1, HIF-2α (Homo sapiens, UniProt Q99814); experiment: Luciferase reporter gene assay (HRE-driven luciferase in stably transfected 786-O cells); assay type: cell-based; settings: 786-O HRE-Luc cells, 24 hours, relative to blank control
# T1 construct: 786-O is a renal carcinoma cell line that predominantly expresses HIF-2α; endogenous in cells; host or cells: 786-O cells stably transfected with HRE-driven luciferase reporter
# Description: Experimental principles: 786-O is a renal carcinoma cell line that predominantly expresses HIF-2α and lacks functional HIF-1α. This characteristic makes 786-O cells an ideal model for studying HIF-2α transcriptional activity and related signaling pathways. In the luciferase reporter gene assay, a 786-O monoclonal cell line that stably expresses hypoxia response element (HRE)-driven luciferase (Luc) activity is obtained through puromycin selection. The HIF-2α agonist promotes dimerization of HIF-2α and HIF-β, and activates an HRE promoter. By measuring fluorescence intensity, luciferase activity can be determined, thereby assessing the ability of the HIF-2α agonist to promote transcription.
# Experimental method: A total of 6000 stably transfected 786-O cells stably containing HRE and Luc sequences are seeded in each well of a 96-well plate, and 100 µL of RPMI-1640 culture medium containing 10% fetal bovine serum is added to each well. After 24 hours, a compound at a corresponding concentration is added to each well. A blank group is set as a control. Only a DMSO solvent is added in the well of the blank group. For initial compound screening, both tafamidis and tafamidis meglumine are tested at two concentrations: 2 µM and 20 µM. For concentration-gradient determination, each concentration is tested in triplicate. After co-incubation for 24 hours, the culture medium is discarded, and 20 µL of firefly luciferase reporter gene cell lysis buffer (RG126M, Beyotime) is added to each well. The 96-well plate is shaken on a microplate shaker for 10 minutes. After shaking, 10 µL of lysate is transferred into a white opaque plate, and then 10 µL of Steady-Lumi™ firefly luciferase assay reagent (RG058S, Beyotime) is added to each well. Finally, luminescence is measured using a microplate reader (Agilent Synergy Neo2). E20 represents the effect of the compound at a 20 µM concentration, and is calculated as: E20 = fluorescence value of the 20 µM well ÷ fluorescence value of the blank control × 100%. E2 represents the effect of the compound at a 2 µM concentration, and is calculated as: E2 = fluorescence value of the 2 µM well ÷ fluorescence value of the blank control × 100%. EC50 is the compound concentration at which the agonistic efficacy is increased by 50% relative to the blank control. […] The maximum activation percentage (Emax) of an agonist refers to a ratio, expressed as a percentage, of the fluorescence value corresponding to the maximal effect (observed maximal response) induced when the agonist concentration reaches receptor-binding saturation in a particular receptor system, to the fluorescence value of the receptor system in the absence of agonist. […]
# T1 sequence (Q99814 whole entry): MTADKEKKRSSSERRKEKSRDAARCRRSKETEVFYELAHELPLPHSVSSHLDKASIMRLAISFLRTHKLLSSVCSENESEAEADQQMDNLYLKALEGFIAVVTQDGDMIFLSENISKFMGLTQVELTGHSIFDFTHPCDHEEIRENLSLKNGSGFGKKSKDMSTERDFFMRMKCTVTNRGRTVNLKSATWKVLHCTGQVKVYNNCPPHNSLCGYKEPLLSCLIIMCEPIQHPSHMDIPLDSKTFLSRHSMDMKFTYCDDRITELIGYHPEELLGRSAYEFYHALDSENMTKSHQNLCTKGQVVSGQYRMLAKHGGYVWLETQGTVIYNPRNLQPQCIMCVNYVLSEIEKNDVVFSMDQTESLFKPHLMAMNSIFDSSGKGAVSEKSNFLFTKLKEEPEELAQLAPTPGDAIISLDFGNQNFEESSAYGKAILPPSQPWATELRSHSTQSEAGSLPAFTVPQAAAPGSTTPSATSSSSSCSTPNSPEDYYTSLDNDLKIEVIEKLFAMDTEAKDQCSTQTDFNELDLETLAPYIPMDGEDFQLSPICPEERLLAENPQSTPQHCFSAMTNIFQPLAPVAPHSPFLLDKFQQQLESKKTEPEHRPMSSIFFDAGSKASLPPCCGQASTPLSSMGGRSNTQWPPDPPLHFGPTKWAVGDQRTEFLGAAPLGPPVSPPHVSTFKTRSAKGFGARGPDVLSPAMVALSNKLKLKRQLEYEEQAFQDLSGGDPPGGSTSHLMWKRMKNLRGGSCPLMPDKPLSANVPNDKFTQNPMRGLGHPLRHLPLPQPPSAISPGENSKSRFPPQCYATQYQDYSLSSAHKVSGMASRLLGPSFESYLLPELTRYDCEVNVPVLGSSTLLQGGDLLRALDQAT
# T1 sequence (P27540 whole entry partner): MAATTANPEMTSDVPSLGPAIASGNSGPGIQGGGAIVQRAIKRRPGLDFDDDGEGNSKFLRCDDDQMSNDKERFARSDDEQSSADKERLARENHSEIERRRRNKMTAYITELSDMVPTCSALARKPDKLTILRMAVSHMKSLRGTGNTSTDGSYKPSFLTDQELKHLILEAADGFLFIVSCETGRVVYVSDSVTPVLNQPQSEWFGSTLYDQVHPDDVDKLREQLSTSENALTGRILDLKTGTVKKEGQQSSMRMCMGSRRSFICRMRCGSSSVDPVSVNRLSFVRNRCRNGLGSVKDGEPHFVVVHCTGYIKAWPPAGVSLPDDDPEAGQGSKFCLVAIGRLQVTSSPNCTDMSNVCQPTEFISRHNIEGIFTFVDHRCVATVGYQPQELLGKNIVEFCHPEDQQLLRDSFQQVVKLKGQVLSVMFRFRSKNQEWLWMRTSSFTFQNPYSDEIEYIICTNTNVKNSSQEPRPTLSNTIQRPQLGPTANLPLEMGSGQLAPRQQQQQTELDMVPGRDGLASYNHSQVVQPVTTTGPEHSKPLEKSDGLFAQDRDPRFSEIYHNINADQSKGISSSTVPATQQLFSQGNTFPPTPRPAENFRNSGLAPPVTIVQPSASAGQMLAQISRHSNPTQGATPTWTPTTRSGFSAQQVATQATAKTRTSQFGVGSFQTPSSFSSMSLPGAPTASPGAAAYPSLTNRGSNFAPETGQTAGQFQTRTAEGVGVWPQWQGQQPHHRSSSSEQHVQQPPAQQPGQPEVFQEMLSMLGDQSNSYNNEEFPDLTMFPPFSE
Compound,upregulates erythropoietin (EPO) gene expression ([1]; 10 µM roxadustat monotherapy) [fold],"Hematocrit (rats with renal anemia; Week 4, n = 6) [%]","Hemoglobin concentration (rats with renal anemia; Week 4, n = 6) [g/L]","Red blood cell count (rats with renal anemia; Week 4, n = 6)",kidneys appear red (gross observation of kidney tissues) (rats with renal anemia; group n = 6) [rats],agonistic efficacy at a 2 µM concentration (E2) (HIF-2α) [%],agonistic efficacy at a 20 µM concentration (E20) (HIF-2α) [%],upregulates EPO gene expression ([1]; 20 µM tafamidis monotherapy) [fold]
Cc1nc(C(=O)NCC(=O)O)c(O)c2ccc(Oc3ccccc3)cc12 [roxadustat],1.5,52.2 ± 1.3,143.3 ± 4.1,7.03 ± 0.40 ×10^12 cells/L,3,–,–,–
"O=C(O)c1ccc2nc(-c3cc(Cl)cc(Cl)c3)oc2c1 [tafamidis, 2-(3,5-dichlorophenyl)-1,3-benzoxazole-6-carboxylic acid]",–,–,–,–,–,142,207,1
O=C(O)c1ccc2nc(-c3cc(Cl)cc(Cl)c3)oc2c1 [tafamidis meglumine],–,–,–,–,–,122,223,–
